Where two headings read alike, the source gives them in different places.
Columns and labels:
PBMC = assay: Cytokine release assay to measure IL-6 from PBMC (ELISA); assay type: cell-based, human; conditions: for stimulation of IL-6 release by PBMC (in words): 6 and 24 hours; for EC50: Homo sapiens
Description: Fresh blood was collected from healthy volunteers and stored in Heparin Sodium tubes. 15 mL of blood was subsequently transferred to a 50 ml centrifugal tube and gently mixed with equal volume of DPBS. 10 ml Ficoll was slowly underlayed using pipette. The tube was centrifuged for 30 minutes at 800 g at RT without break. The buffy coat (containing PBMC) was aspirated at the interface between serum and Ficoll. The PBMC were washed with sufficient DPBS and centrifuged at 900 g to remove the Ficoll. RPMI-1640 Medium was added to the collected PBMC and the number of PBMC determined by counting. 1 ml of blood typically yields at least 1 million of PBMC.
PBMC were counted and cell densities adjusted. 100 μl of cells were added into the required number of wells such that the cell density for the IL-6 assay was 5,000/well. LD1-oxidized mannan conjugates for screening were serially diluted in DMSO. The LD1 solution was added to each well (final concentration of DMSO in assay was not more than 0.03%). The plates were incubated in a CO2 incubator at 37° C. and supernatants collected at 6 and 24 hours. At each time point of collection, the plates were centrifuged at 900 rpm for 4 minutes and the supernatents transferred to another 96 well plate. These were labelled and stored at −80° C. ELISA kits for IL-6 (Invitrogen) were used for quantitation of cytokine released. The ELISAs were performed as described in the manufacturer's instructions. The absorbances were measured by FlexStation 3. A standard curve for each cytokine was drawn each time for analyzing the data.
The Loxorubine (LOX) derivative, LD1, was synthesised and conjugated to oxidized mannan (LD1-OM) as described above. The LOX derivative, LD1, incorporates a hydrazide linkage for conjugation to aldehyde residues of oxidized mannan and an ester linkage between the linker and the LOX. LD1 oxidized mannan conjugates were used to stimulate PBMCs isolated from human donors and IL-6 cytokine release measured by ELISA.

[1] = tested on: MART-1-specific CD8 T cells; assay: Priming and recall of MART-1-specific T cell responses (intracellular IFNγ); assay type: cell-based, human; conditions: PBMC and MoDC from donors BC28 and BC29, 20 μg/ml
Description: MoDC at 2×10^5/ml (for 1:20 MoDC:T cell) in complete AB medium were added to a 24 well plate (1 ml per test condition) followed by protein or >1000 kDa oxidized mannan conjugate (10-20 μg/ml). Four hours later, 4×10^6 CD14 depleted PBMC were added to the wells in 1 ml complete AB medium. After 3 days, 25 U/ml IL-2, 10 ng/ml IL-7 and 10 ng/ml IL-15 was added. The T cells were re-stimulated 7-10 days later with 1×10^5 MoDC loaded with antigen. Twenty four hours following re-stimulation, cultures were supplemented with 25 U/ml IL-2 and again 3-4 days after. T cell cultures were typically analysed after 1 or 2 re-stimulations.
For T cell epitope peptides—Peptide loaded T2 cells (2×10^5/well) were prepared by pulsing with an irrelevant peptide (e.g., CAP-1 10 μg/ml or no peptide) and one with the peptide of interest ([…]) for 1 hour in serum free medium with 1.25 μg/ml β2-microglobulin. T2 cells were added at about a 1:5 ratio (4×10^4/well) in 100 μl to the duplicate T cell wells and incubate for 1 hour at 37° C. 5% CO2. […]
PBMC and MoDC from 2 donors (BC28 and BC29) were used for priming with MART-1 and >1000 kDa oxidized mannan conjugates (20 μg/ml) as described in Example 1. After 1 stimulation, analog and native MART-1 peptide-specific T cell responses were measured using pulsed T2 cells (FIG. 51). […]

**Q.** `C=CCn1c(=O)n([C@@H]2O[C@H](COC(=O)c3ccc(NN)nc3)[C@@H](O)[C@H]2O)c2nc(N)[nH]c(=O)c21` [LD1, ((2R,3S,4R,5R)-5-(7-allyl-2-amino-6,8-dioxo-1,6,7,8-tetrahydropurin-9-yl)-3,4-dihydroxy-tetrahydrofuran-2-yl)methyl 6-hydrazinylnicotinate] was tested. Which “stimulation of IL-6 release by PBMC (in words)” value (PBMC; LOX at 500 μM) did it give?
**A.** did not stimulate IL-6

**Q.** With `C=CCn1c(=O)n([C@@H]2O[C@H](CO)[C@@H](O)[C@H]2O)c2nc(N)[nH]c(=O)c21` [LOX, 7-allyl-7,8-dihydro-8-oxo-guanosine] as the molecule, how does the “stimulation of IL-6 release by PBMC (in words)” value (PBMC; LOX at 500 μM) read?
**A.** able to stimulate IL-6 release

**Q.** And the “Amount IL-6 (pg/ml), 6 hr” value (PBMC; 6 hr, LOX at 500 μM)?
**A.** failed to induce IL-6

**Q.** What about the “Amount IL-6 (pg/ml), 24 hr” value (PBMC; 24 hr, LOX at 500 μM) of the same molecule?
**A.** 10 pg/mL

**Q.** What about the EC50 (PBMC; 6 hr, read-out: EC50 of IL-6, 6 hr) of the same molecule?
**A.** > 500 µM

**Q.** And the EC50 (PBMC; 24 hr, read-out: EC50 of IL-6, 24 hr)?
**A.** > 500 µM

B1: >1000 kDa oxidized mannan-MART-1: recombinant MART-1 protein linked to >1000 kDa oxidized mannan (conjugate, UniProt Q16655 1-118, looked up)
Melanoma antigen recognized …: MPREDAHFIYGYPKKGHGHSYTTAEEAAGIGILTVILGVLLLIGCWYCRRRNGYRALMDKSLHVGTQCALTRRCPQEGFDHRDSKVSLQEKNCEPVVPNAPPAYEKLSAEQSPPPYSP
modifications: conjugated to >1000 kDa oxidized mannan
notes: recombinant MART-1 protein linked to >1000 kDa oxidized mannan
**Q.** B1 was tested. Which “MART-1-specific T cell responses after priming” value [1] did it give?
**A.** efficiently responded to analog or native MART-1 peptides presented by T2 cells

**Q.** And the “MART-1-specific T cell responses after priming” value ([1]; listed as MART-1 >1000 kDa oxidized mannan)?
**A.** more efficient in priming than unconjugated protein

Reference: US10344261B2, “Immunomodulatory conjugates” (ASCEND BIOPHARMACEUTICALS LTD, priority 2011, dated 2019)
